Measurements as given in ChEMBL document CHEMBL1201862, “PubChem BioAssay data set” (2004).
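1) Cells in 96-well plates. 2) Compound, 48 h, 5 concentrations. 3) Linear interpolation between surrounding doses. 4) Unreached endpoint = highest concentration. Here, GI50 denotes the concentration required for 50% inhibition of growth.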 Activity calls are given as the source filed them. Rule as the data show it: active = GI50 up to about 1.1 µM and inactive = higher.

Columns and labels:
Experiment in all cases: DTP human tumour cell line panel, 48 h
TK-10 = system: TK-10
MDA-N = system: MDA-N
UACC-62 = system: UACC-62
A549 = system: A549
HOP-62 = system: HOP-62
SK-MEL-5 = system: SK-MEL-5
SK-OV-3 = system: SK-OV-3
HL-60 = system: HL-60
NCI-H226 = system: NCI-H226
UO-31 = system: UO-31
MDA-MB-435 = system: MDA-MB-435
BT-549 = system: BT-549
Malme-3M = system: Malme-3M
SR = system: SR
OVCAR-3 = system: OVCAR-3
COLO 205 = system: COLO 205
T47D = system: T47D
EKVX = system: EKVX
M14 = system: M14
IGROV-1 = system: IGROV-1

CCC1(CC)N=C(C(F)(F)F)c2cc(C(=O)C(F)(F)F)c3ccccc3c2N1
GI50 (TK-10): 8.63 µM (inactive)
GI50 (MDA-N): 3.15 µM (inactive)
GI50 (UACC-62): 3.36 µM (inactive)
GI50 (A549): 9.71 µM (inactive)
GI50 (HOP-62): 5.19 µM (inactive)
GI50 (SK-MEL-5): 1.77 µM (inactive)
GI50 (SK-OV-3): 17.7 µM (inactive)
GI50 (HL-60): 2.95 µM (inactive)
GI50 (NCI-H226): 6.5 µM (inactive)
GI50 (UO-31): 3.3 µM (inactive)
GI50 (MDA-MB-435): 3.58 µM (inactive)
GI50 (BT-549): 5.87 µM (inactive)
GI50 (Malme-3M): 11.4 µM (inactive)
GI50 (SR): 2.98 µM (inactive)
GI50 (OVCAR-3): 2.73 µM (inactive)
GI50 (COLO 205): 14 µM (inactive)
GI50 (T47D): 3.75 µM (inactive)
GI50 (EKVX): 10.2 µM (inactive)
GI50 (M14): 4.89 µM (inactive)
GI50 (IGROV-1): 3.76 µM (inactive)

CC(C)NC(NC(C)C)=C(S(=O)(=O)C(F)(F)C(F)(F)C(F)(F)C(F)(F)F)S(=O)(=O)C(F)(F)C(F)(F)C(F)(F)C(F)(F)F
GI50 (TK-10): > 100 µM (inactive)
GI50 (MDA-N): > 100 µM (inactive)
GI50 (UACC-62): > 100 µM (inactive)
GI50 (A549): > 100 µM (inactive)
GI50 (HOP-62): > 100 µM (inactive)
GI50 (SK-MEL-5): > 100 µM (inactive)
GI50 (SK-OV-3): > 100 µM (inactive)
GI50 (HL-60): > 100 µM (inactive)
GI50 (NCI-H226): > 100 µM (inactive)
GI50 (UO-31): > 100 µM (inactive)
GI50 (MDA-MB-435): > 100 µM (inactive)
GI50 (BT-549): 90.8 µM (inactive)
GI50 (Malme-3M): > 100 µM (inactive)
GI50 (SR): > 100 µM (inactive)
GI50 (OVCAR-3): > 100 µM (inactive)
GI50 (COLO 205): > 100 µM (inactive)
GI50 (T47D): > 100 µM (inactive)
GI50 (EKVX): > 100 µM (inactive)
GI50 (M14): > 100 µM (inactive)
GI50 (IGROV-1): > 100 µM (inactive)

Nc1c2ccccc2nc2ccc3c(=O)cc(-c4ccccc4)oc3c12
GI50 (TK-10): 2.07 µM (inactive)
GI50 (MDA-N): 0.815 µM (active)
GI50 (UACC-62): 1.6 µM (inactive)
GI50 (A549): 1.4 µM (inactive)
GI50 (HOP-62): 0.94 µM (active)
GI50 (SK-MEL-5): 1.52 µM (inactive)
GI50 (SK-OV-3): 1.83 µM (inactive)
GI50 (HL-60): 0.977 µM (active)
GI50 (NCI-H226): 1.31 µM (inactive)
GI50 (UO-31): 1.5 µM (inactive)
GI50 (MDA-MB-435): 1.27 µM (inactive)
GI50 (BT-549): 2.8 µM (inactive)
GI50 (Malme-3M): 1.66 µM (inactive)
GI50 (SR): 0.393 µM (active)
GI50 (OVCAR-3): 1.42 µM (inactive)
GI50 (COLO 205): 0.234 µM (active)
GI50 (T47D): 1.17 µM (inactive)
GI50 (EKVX): 1.34 µM (inactive)
GI50 (M14): 1.21 µM (inactive)
GI50 (IGROV-1): 1.12 µM (inactive)

COc1ccc(C(=O)/C=C/c2cc(O)c(O)c(F)c2F)c(OC)c1
GI50 (TK-10): 22.5 µM (inactive)
GI50 (MDA-N): 12.7 µM (inactive)
GI50 (UACC-62): 15.1 µM (inactive)
GI50 (A549): 16.1 µM (inactive)
GI50 (HOP-62): 26.5 µM (inactive)
GI50 (SK-MEL-5): 11.5 µM (inactive)
GI50 (SK-OV-3): 21.5 µM (inactive)
GI50 (HL-60): 4.22 µM (inactive)
GI50 (NCI-H226): 21.5 µM (inactive)
GI50 (UO-31): 35.2 µM (inactive)
GI50 (MDA-MB-435): 17.9 µM (inactive)
GI50 (BT-549): 19.2 µM (inactive)
GI50 (Malme-3M): 15.5 µM (inactive)
GI50 (SR): 4.24 µM (inactive)
GI50 (OVCAR-3): 5.48 µM (inactive)
GI50 (COLO 205): 15.6 µM (inactive)
GI50 (T47D): 15.2 µM (inactive)
GI50 (EKVX): 25 µM (inactive)
GI50 (M14): 22.8 µM (inactive)
GI50 (IGROV-1): 19.8 µM (inactive)

O=C1C(SCCO)=C(SCCO)C(=O)c2ccccc21
GI50 (TK-10): 1.62 µM (inactive)
GI50 (MDA-N): 0.167 µM (active)
GI50 (UACC-62): 1.44 µM (inactive)
GI50 (A549): 1.29 µM (inactive)
GI50 (HOP-62): 1.85 µM (inactive)
GI50 (SK-MEL-5): 0.238 µM (active)
GI50 (SK-OV-3): 1.66 µM (inactive)
GI50 (HL-60): 1.17 µM (inactive)
GI50 (NCI-H226): 1.71 µM (inactive)
GI50 (UO-31): 1.08 µM (active)
GI50 (MDA-MB-435): 0.186 µM (active)
GI50 (BT-549): 1.43 µM (inactive)
GI50 (Malme-3M): 1.1 µM (active)
GI50 (SR): 1.51 µM (inactive)
GI50 (OVCAR-3): 0.986 µM (active)
GI50 (COLO 205): 1.77 µM (inactive)
GI50 (T47D): 1.22 µM (inactive)
GI50 (EKVX): 1.6 µM (inactive)
GI50 (M14): 0.815 µM (active)
GI50 (IGROV-1): 0.467 µM (active)

C=CCN1C(=O)C[C@H](Cc2ccccc2)NC(=O)C[C@H](Cc2ccccc2)N(CC=C)C(=O)C[C@H](Cc2ccccc2)NC(=O)C[C@@H]1Cc1ccccc1
GI50 (TK-10): 8.79 µM (inactive)
GI50 (MDA-N): 8.91 µM (inactive)
GI50 (UACC-62): 6.34 µM (inactive)
GI50 (A549): 4.83 µM (inactive)
GI50 (HOP-62): 51.8 µM (inactive)
GI50 (SK-MEL-5): 20.7 µM (inactive)
GI50 (SK-OV-3): 34 µM (inactive)
GI50 (HL-60): 3.35 µM (inactive)
GI50 (NCI-H226): 14 µM (inactive)
GI50 (UO-31): 7.03 µM (inactive)
GI50 (MDA-MB-435): 5.93 µM (inactive)
GI50 (BT-549): 95.5 µM (inactive)
GI50 (Malme-3M): 3.81 µM (inactive)
GI50 (SR): 5.16 µM (inactive)
GI50 (OVCAR-3): 87.7 µM (inactive)
GI50 (COLO 205): 2.3 µM (inactive)
GI50 (T47D): 6.3 µM (inactive)
GI50 (EKVX): 0.942 µM (active)
GI50 (M14): 8.09 µM (inactive)
GI50 (IGROV-1): 20 µM (inactive)

CC(=O)NC1C(O)C(O)C(CO)OC1n1ncc(=O)[nH]c1=O (stereo not given)
GI50 (TK-10): > 100 µM (inactive)
GI50 (MDA-N): > 100 µM (inactive)
GI50 (UACC-62): > 100 µM (inactive)
GI50 (A549): > 100 µM (inactive)
GI50 (HOP-62): > 100 µM (inactive)
GI50 (SK-MEL-5): > 100 µM (inactive)
GI50 (SK-OV-3): > 100 µM (inactive)
GI50 (HL-60): > 100 µM (inactive)
GI50 (NCI-H226): > 100 µM (inactive)
GI50 (UO-31): > 100 µM (inactive)
GI50 (MDA-MB-435): > 100 µM (inactive)
GI50 (BT-549): > 100 µM (inactive)
GI50 (Malme-3M): > 100 µM (inactive)
GI50 (SR): > 100 µM (inactive)
GI50 (OVCAR-3): > 100 µM (inactive)
GI50 (COLO 205): > 100 µM (inactive)
GI50 (T47D): > 100 µM (inactive)
GI50 (EKVX): > 100 µM (inactive)
GI50 (M14): > 100 µM (inactive)
GI50 (IGROV-1): > 100 µM (inactive)

O=C1C=CC(=O)c2c1ccc1c3ccccc3n(-c3ccccc3)c21
GI50 (TK-10): 7.66 µM (inactive)
GI50 (MDA-N): 5.64 µM (inactive)
GI50 (UACC-62): 13 µM (inactive)
GI50 (A549): 20.5 µM (inactive)
GI50 (HOP-62): 11 µM (inactive)
GI50 (SK-MEL-5): 16.7 µM (inactive)
GI50 (SK-OV-3): 16.8 µM (inactive)
GI50 (HL-60): 0.501 µM (active)
GI50 (NCI-H226): 18.3 µM (inactive)
GI50 (UO-31): 11.9 µM (inactive)
GI50 (MDA-MB-435): 14.1 µM (inactive)
GI50 (BT-549): 13.5 µM (inactive)
GI50 (Malme-3M): 4.47 µM (inactive)
GI50 (SR): 0.271 µM (active)
GI50 (OVCAR-3): 8.83 µM (inactive)
GI50 (COLO 205): 4.56 µM (inactive)
GI50 (T47D): 2.05 µM (inactive)
GI50 (EKVX): 8.77 µM (inactive)
GI50 (M14): 7.78 µM (inactive)
GI50 (IGROV-1): 18.3 µM (inactive)

CC1Cc2cc(O)ccc2C2[C@@H]1C1CC[C@H](O)[C@@]1(C)C[C@@H]2O[N+](=O)[O-] (stereo not given in full)
GI50 (TK-10): 13.2 µM (inactive)
GI50 (MDA-N): 1.96 µM (inactive)
GI50 (UACC-62): 5.46 µM (inactive)
GI50 (A549): 11 µM (inactive)
GI50 (HOP-62): 8.83 µM (inactive)
GI50 (SK-MEL-5): 4.93 µM (inactive)
GI50 (SK-OV-3): 19.6 µM (inactive)
GI50 (HL-60): 2.79 µM (inactive)
GI50 (NCI-H226): 32.1 µM (inactive)
GI50 (UO-31): 13.7 µM (inactive)
GI50 (MDA-MB-435): 2.52 µM (inactive)
GI50 (BT-549): 10.9 µM (inactive)
GI50 (Malme-3M): 10.7 µM (inactive)
GI50 (SR): 5.56 µM (inactive)
GI50 (OVCAR-3): 9.12 µM (inactive)
GI50 (COLO 205): 22.3 µM (inactive)
GI50 (T47D): 9.55 µM (inactive)
GI50 (EKVX): 21.4 µM (inactive)
GI50 (M14): 6.15 µM (inactive)
GI50 (IGROV-1): 25.2 µM (inactive)

Cc1ccc([N+](=O)[O-])cc1S(=O)(=O)Nc1ccc(C2=NN(S(=O)(=O)c3cc([N+](=O)[O-])ccc3C)C(c3ccccc3)C2)cc1 (stereo not given)
GI50 (TK-10): 30.9 µM (inactive)
GI50 (MDA-N): 30.1 µM (inactive)
GI50 (UACC-62): 16 µM (inactive)
GI50 (A549): 29.4 µM (inactive)
GI50 (HOP-62): 35.1 µM (inactive)
GI50 (SK-MEL-5): 26.3 µM (inactive)
GI50 (SK-OV-3): 27.4 µM (inactive)
GI50 (HL-60): 35.6 µM (inactive)
GI50 (NCI-H226): 54.2 µM (inactive)
GI50 (UO-31): 28.6 µM (inactive)
GI50 (MDA-MB-435): 36.8 µM (inactive)
GI50 (BT-549): 21.8 µM (inactive)
GI50 (Malme-3M): 17.7 µM (inactive)
GI50 (SR): 32 µM (inactive)
GI50 (OVCAR-3): 26 µM (inactive)
GI50 (COLO 205): 27 µM (inactive)
GI50 (T47D): 41.4 µM (inactive)
GI50 (EKVX): 28.8 µM (inactive)
GI50 (M14): 30.9 µM (inactive)
GI50 (IGROV-1): 29.3 µM (inactive)
